# In patent publication US20240228458A1, “PYRIMIDINE DERIVATIVE HAVING PROTEIN KINASE INHIBITORY ACTIVITY, AND THERAPEUTIC PHARMACEUTICAL COMPOSITION COMPRISING SAME” (THERAPEX CO., LTD., priority 2021, published 2024):
# Tests used:
# Assay type in all cases: cell-based
# [1] = tested on: Ba/F3 cells expressing EGFR-wt; test: Growth inhibition (GI50) of Ba/F3 cells expressing EGFR-wt, Celltiter glo
# In short: (§1)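 Ba/F3 cells carrying each EGFR variant were plated at 100,000 cells/ml; after 4 h, compound was added as 10-point 4-fold dilutions (top stock 2 mM, 0.5% DMSO). After 72 h at 37 °C, viability was read by CellTiter-Glo; GI50 is the molar concentration (μM) giving 50% growth inhibition.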
# [2] = tested on: Ba/F3 cells expressing del19/T790M/C797S (EGFR-DTC); test: Growth inhibition (GI50) of Ba/F3 cells expressing del19/T790M/C797S (EGFR-DTC), Celltiter glo
# In short: as §1
# [3] = tested on: Ba/F3 cells expressing L858R/T790M/C797S (EGFR-LTC); test: Growth inhibition (GI50) of Ba/F3 cells expressing L858R/T790M/C797S (EGFR-LTC), Celltiter glo
# In short: as §1
# [4] = tested on: Ba/F3 cells expressing del19/T790M (EGFR-DT); test: Growth inhibition (GI50) of Ba/F3 cells expressing del19/T790M (EGFR-DT), Celltiter glo
# In short: as §1
# [5] = tested on: Ba/F3 cells expressing L858R/T790M (EGFR-LT); test: Growth inhibition (GI50) of Ba/F3 cells expressing L858R/T790M (EGFR-LT), Celltiter glo
# In short: as §1
# parental Ba/F3 cell line = test: Growth inhibition (GI50) of the parental Ba/F3 cell line (not introduced with EGFR variants), Celltiter glo; conditions: parental Ba/F3 cells
# In short: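 Parental Ba/F3 cells (100,000 cells/ml) were treated with 10-point, 4-fold compound dilutions (0.5% DMSO; top stock 2 mM) for 72 h at 37 °C, 5% CO2. Viability was read by CellTiter-Glo; GI50 is the concentration (μM) giving 50% growth inhibition.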
SMILES,"GI50 ([1]; Mus musculus, BaF3, 72 h)","GI50 ([2]; Mus musculus, BaF3, 72 h)","GI50 ([3]; Mus musculus, BaF3, 72 h)","GI50 ([4]; Mus musculus, BaF3, 72 h)","GI50 ([5]; Mus musculus, BaF3, 72 h)",GI50 ([1]; 72 h),GI50 ([2]; 72 h),GI50 ([3]; 72 h),GI50 ([4]; 72 h),GI50 ([5]; 72 h),"GI50 (parental Ba/F3 cell line; Mus musculus, BaF3, 72 h)",GI50 (parental Ba/F3 cell line; 72 h)
"COc1cc(N2CCC(N3CCCC(N(C)C)C3)CC2)c(Br)cc1Nc1ncc(Cl)c(Nc2cc3c(cc2NS(C)(=O)=O)CCO3)n1 (stereo not drawn) [Example 280, N-(6-((2-((5-bromo-4-(3-(dimethylamino)-[1,4′-bipiperidin]-1′-yl)-2-methoxyphenyl)amino)-5-chloropyrimidin-4-yl)amino)-2,3-dihydrobenzofuran-5-yl)methanesulfonamide]",25 to 100 nM,100 to 500 nM,1 to 25 nM,1 to 25 nM,1 to 25 nM,,,,,,2000 to 10000 nM,
"COc1cc(N2CCC(N3CCCC(N(C)C)C3)CC2)c(Br)cc1Nc1ncc(Br)c(Nc2cc3c(cc2NS(C)(=O)=O)CCO3)n1 (stereo not drawn) [Example 281, N-(6-((5-bromo-2-((5-bromo-4-(3-(dimethylamino)-[1,4′-bipiperidin]-1′-yl)-2-methoxyphenyl)amino)pyrimidin-4-yl)amino)-2,3-dihydrobenzofuran-5-yl)methanesulfonamide]",100 to 500 nM,25 to 100 nM,1 to 25 nM,1 to 25 nM,1 to 25 nM,,,,,,100 to 500 nM,
"COc1cc(N2CCC(N3CCC(N(C)C)C3)CC2)c(Br)cc1Nc1ncc(Cl)c(Nc2cc3c(cc2NS(C)(=O)=O)CCO3)n1 (stereo not drawn) [Example 283, N-(6-((2-((5-bromo-4-(4-(3-(dimethylamino)pyrrolidin-1-yl)piperidin-1-yl)-2-methoxyphenyl)amino)-5-chloropyrimidin-4-yl)amino)-2,3-dihydrobenzofuran-5-yl)methanesulfonamide]",100 to 500 nM,100 to 500 nM,25 to 100 nM,1 to 25 nM,1 to 25 nM,,,,,,2000 to 10000 nM,

# The next lines start with results.
"GI50 ([1]; Mus musculus, BaF3, 72 h)","GI50 ([2]; Mus musculus, BaF3, 72 h)","GI50 ([3]; Mus musculus, BaF3, 72 h)","GI50 ([4]; Mus musculus, BaF3, 72 h)","GI50 ([5]; Mus musculus, BaF3, 72 h)",GI50 ([1]; 72 h),GI50 ([2]; 72 h),GI50 ([3]; 72 h),GI50 ([4]; 72 h),GI50 ([5]; 72 h),SMILES,"GI50 (parental Ba/F3 cell line; Mus musculus, BaF3, 72 h)",GI50 (parental Ba/F3 cell line; 72 h)
2000 to 10000 nM,2000 to 10000 nM,2000 to 10000 nM,100 to 500 nM,500 to 2000 nM,,,,,,COc1cc(N2CCC(N3CCN(C)CC3)CC2)ccc1Nc1ncc(Cl)c(Nc2ccc3c(c2)NCC3)n1 [Example 279],2000 to 10000 nM,
100 to 500 nM,100 to 500 nM,25 to 100 nM,1 to 25 nM,1 to 25 nM,,,,,,"COc1cc(N2CCC(N3CCCN(C)CC3)CC2)c(Br)cc1Nc1ncc(Cl)c(Nc2cc3c(cc2NS(C)(=O)=O)CCO3)n1 [Example 282, N-(6-((2-((5-bromo-2-methoxy-4-(4-(4-methyl-1,4-diazepan-1-yl)piperidin-1-yl)phenyl)amino)-5-chloropyrimidin-4-yl)amino)-2,3-dihydrobenzofuran-5-yl)methanesulfonamide]",2000 to 10000 nM,
,,,,,500 to 2000 nM,25 to 100 nM,25 to 100 nM,100 to 500 nM,100 to 500 nM,COc1cc(N2CCC(N3CCN(C)CC3)CC2)c(C)cc1Nc1ncc(Br)c(Nc2ccc3nccnc3c2P(C)(C)=O)n1 [TQB-3804],,500 to 2000 nM
